Like-named read-outs stand apart in the source and are kept apart here.
Experiments:
MKL-2 cells (VP-MCC) = experiment: qHTS cell viability (CellTiter-Glo, 72 h; primary and follow-up small molecule screen); format: cell-based, human
WAGA cells (VP-MCC) = experiment: as above; format: cell-based, human; conditions: WAGA
MKL-1 cells (VP-MCC) = experiment: as above; format: cell-based, human
[1] = tested on: MKL-1 (VP-MCC) xenograft tumors; set-up: method as in PMID 22572880; conditions: prior report; cited from earlier work
MCC13 cells (VN-MCC) = experiment: qHTS cell viability (CellTiter-Glo, 72 h; primary and follow-up small molecule screen); format: cell-based, human
[2] = qHTS cell viability (CellTiter-Glo, 72 h; primary screen), control cell line; format: cell-based, human; conditions: human, HACAT, read-out: Percent viability
UISO cells (VN-MCC) = experiment: qHTS cell viability (CellTiter-Glo, 72 h; primary and follow-up small molecule screen); format: cell-based, human; conditions: UISO
[3] = tested on: VP-MCC cell lines (WAGA, MKL-1, MKL-2); experiment: qHTS cell viability, VP-MCC cell lines as a group (mean AUC, VP.MCC.avg); format: cell-based, human; conditions: small molecule screen
MCC26 cells (VN-MCC) = experiment: qHTS cell viability (CellTiter-Glo, 72 h; primary and follow-up small molecule screen); format: cell-based, human
[4] = qHTS cell viability (CellTiter-Glo, 72 h; primary screen), control cell line; format: cell-based, human; conditions: human, HEK293T, read-out: Percent viability
[5] = as above; format: cell-based; conditions: human, read-out: Percent viability

With `COCCn1c2c([n+](Cc3cnccn3)c1C)C(=O)c1ccccc1C2=O` [sepantronium bromide, reference compound] the Percent viability (MKL-2 cells (VP-MCC); MKL2, Log (M) -4.33646) was 5.0%, the Percent viability (MKL-2 cells (VP-MCC); MKL2, Log (M) -4.81358) was 6.0% and the Percent viability (MKL-2 cells (VP-MCC); MKL2, Log (M) -5.2907) was 6.6%. The Percent viability (MKL-2 cells (VP-MCC); MKL2, Log (M) -5.76782) was 7.9%, the Percent viability (MKL-2 cells (VP-MCC); MKL2, Log (M) -6.24494) was 7.7% and the Percent viability (MKL-2 cells (VP-MCC); MKL2, Log (M) -6.72207) was 7.4%. The Percent viability (MKL-2 cells (VP-MCC); MKL2, Log (M) -7.19919) was 9.2%, the Percent viability (MKL-2 cells (VP-MCC); MKL2, Log (M) -7.67631) was 27.9% and the Percent viability (MKL-2 cells (VP-MCC); MKL2, Log (M) -8.15343) was 100.0%. The Percent viability (MKL-2 cells (VP-MCC); MKL2, Log (M) -8.63055) was 100.0%, the Percent viability (MKL-2 cells (VP-MCC); MKL2, Log (M) -9.10767) was 102.5% and the Percent viability (WAGA cells (VP-MCC); Log (M) -4.33646) was 2.2%. The Percent viability (WAGA cells (VP-MCC); Log (M) -4.81358) was 2.7%, the Percent viability (WAGA cells (VP-MCC); Log (M) -5.2907) was 3.2% and the Percent viability (WAGA cells (VP-MCC); Log (M) -5.76782) was 3.6%. The Percent viability (WAGA cells (VP-MCC); Log (M) -6.24494) was 3.4%, the Percent viability (WAGA cells (VP-MCC); Log (M) -6.72207) was 4.1% and the Percent viability (WAGA cells (VP-MCC); Log (M) -7.19919) was 5.7%. It also gave a Percent viability (WAGA cells (VP-MCC); Log (M) -7.67631) of 15.6%, a Percent viability (WAGA cells (VP-MCC); Log (M) -8.15343) of 103.1% and a Percent viability (WAGA cells (VP-MCC); Log (M) -8.63055) of 106.2%. It also gave a Percent viability (WAGA cells (VP-MCC); Log (M) -9.10767) of 107.0%, a Percent viability (MKL-1 cells (VP-MCC); MKL1, Log (M) -4.33646) of 4.1% and a Percent viability (MKL-1 cells (VP-MCC); MKL1, Log (M) -4.81358) of 5.1%. For the same compound, the Percent viability (MKL-1 cells (VP-MCC); MKL1, Log (M) -5.2907) was 6.0%, the Percent viability (MKL-1 cells (VP-MCC); MKL1, Log (M) -5.76782) was 6.5% and the Percent viability (MKL-1 cells (VP-MCC); MKL1, Log (M) -6.24494) was 8.2%. For the same compound, the Percent viability (MKL-1 cells (VP-MCC); MKL1, Log (M) -6.72207) was 7.5%, the Percent viability (MKL-1 cells (VP-MCC); MKL1, Log (M) -7.19919) was 7.7% and the Percent viability (MKL-1 cells (VP-MCC); MKL1, Log (M) -7.67631) was 8.0%. The Percent viability (MKL-1 cells (VP-MCC); MKL1, Log (M) -8.15343) was 17.1%, the Percent viability (MKL-1 cells (VP-MCC); MKL1, Log (M) -8.63055) was 55.6% and the Percent viability (MKL-1 cells (VP-MCC); MKL1, Log (M) -9.10767) was 97.8%. The “growth of MKL-1 (VP-MCC) xenograft tumors (in words)” value [1] was “slowed the growth of MKL-1 (VP-MCC) xenograft tumors”, the Percent viability (MCC13 cells (VN-MCC); MCC-13, Log (M) -4.33646) was 8.9% and the Percent viability (MCC13 cells (VN-MCC); MCC-13, Log (M) -4.81358) was 6.8%. For the same compound, the Percent viability (MCC13 cells (VN-MCC); MCC-13, Log (M) -5.2907) was 19.3%, the Percent viability (MCC13 cells (VN-MCC); MCC-13, Log (M) -5.76782) was 19.0% and the Percent viability (MCC13 cells (VN-MCC); MCC-13, Log (M) -6.24494) was 57.5%. For the same compound, the Percent viability (MCC13 cells (VN-MCC); MCC-13, Log (M) -6.72207) was 89.4%, the Percent viability (MCC13 cells (VN-MCC); MCC-13, Log (M) -7.19919) was 92.8% and the Percent viability (MCC13 cells (VN-MCC); MCC-13, Log (M) -7.67631) was 105.1%. For the same compound, the Percent viability (MCC13 cells (VN-MCC); MCC-13, Log (M) -8.15343) was 92.1%, the Percent viability (MCC13 cells (VN-MCC); MCC-13, Log (M) -8.63055) was 110.1% and the Percent viability (MCC13 cells (VN-MCC); MCC-13, Log (M) -9.10767) was 104.4%. For the same compound, the viability at 72 h, 15.4 µM ([2]; HACAT cells (control cell line), Log (M) -4.81358) was 21.2%, the viability at 72 h, 5.12 µM ([2]; HACAT cells (control cell line), Log (M) -5.2907) was 18.9% and the viability at 72 h, 1.71 µM ([2]; HACAT cells (control cell line), Log (M) -5.76782) was 48.7%. For the same compound, the viability at 72 h, 0.569 µM ([2]; HACAT cells (control cell line), Log (M) -6.24494) was 44.2%, the viability at 72 h, 190 nM ([2]; HACAT cells (control cell line), Log (M) -6.72207) was 35.1% and the viability at 72 h, 63.2 nM ([2]; HACAT cells (control cell line), Log (M) -7.19919) was 66.6%. It also gave a viability at 72 h, 46.1 µM ([2]; HACAT cells, Log (M) -4.33646) of 21.2%, a viability at 72 h, 21.1 nM ([2]; HACAT cells, Log (M) -7.67631) of 100% and a viability at 72 h, 7.02 nM ([2]; HACAT cells, Log (M) -8.15343) of 98.2%. It also gave a viability at 72 h, 2.34 nM ([2]; HACAT cells, Log (M) -8.63055) of 88.9%, a viability at 72 h, 0.78 nM ([2]; HACAT cells, Log (M) -9.10767) of 104% and a Percent viability (UISO cells (VN-MCC); Log (M) -4.33646) of 1.7%. It also gave a Percent viability (UISO cells (VN-MCC); Log (M) -4.81358) of -3.1%, a Percent viability (UISO cells (VN-MCC); Log (M) -5.76782) of 0.3% and a Percent viability (UISO cells (VN-MCC); Log (M) -6.24494) of -7.3%. It also gave a Percent viability (UISO cells (VN-MCC); Log (M) -6.72207) of -3.8%, a Percent viability (UISO cells (VN-MCC); Log (M) -7.19919) of 3.4% and a Percent viability (UISO cells (VN-MCC); Log (M) -7.67631) of 44.8%. For the same compound, the Percent viability (UISO cells (VN-MCC); Log (M) -8.15343) was 99.6%, the Percent viability (UISO cells (VN-MCC); Log (M) -8.63055) was 102.4% and the Percent viability (UISO cells (VN-MCC); Log (M) -9.10767) was 104.0%. For the same compound, the “viability of VP-MCC (in words)” value [3] was “potent compound for inhibiting the viability of VP-MCC”, the Percent viability (MCC26 cells (VN-MCC); MCC-26, Log (M) -4.33646) was 12.7% and the Percent viability (MCC26 cells (VN-MCC); MCC-26, Log (M) -4.81358) was 14.1%. The Percent viability (MCC26 cells (VN-MCC); MCC-26, Log (M) -5.2907) was 15.5%, the Percent viability (MCC26 cells (VN-MCC); MCC-26, Log (M) -5.76782) was 13.0% and the Percent viability (MCC26 cells (VN-MCC); MCC-26, Log (M) -6.24494) was 32.6%. The Percent viability (MCC26 cells (VN-MCC); MCC-26, Log (M) -6.72207) was 74.3%, the Percent viability (MCC26 cells (VN-MCC); MCC-26, Log (M) -7.19919) was 94.8% and the Percent viability (MCC26 cells (VN-MCC); MCC-26, Log (M) -7.67631) was 100.8%. The Percent viability (MCC26 cells (VN-MCC); MCC-26, Log (M) -8.15343) was 100.6%, the Percent viability (MCC26 cells (VN-MCC); MCC-26, Log (M) -8.63055) was 101.9% and the Percent viability (MCC26 cells (VN-MCC); MCC-26, Log (M) -9.10767) was 102.7%. It also gave a viability at 72 h, 15.4 µM ([4]; HEK293T cells (control cell line), Log (M) -4.81358) of 1%, a viability at 72 h, 5.12 µM ([4]; HEK293T cells (control cell line), Log (M) -5.2907) of -4.1% and a viability at 72 h, 1.71 µM ([4]; HEK293T cells (control cell line), Log (M) -5.76782) of -3.3%. For the same compound, the viability at 72 h, 63.2 nM ([4]; HEK293T cells (control cell line), Log (M) -7.19919) was -1.7%, the viability at 72 h, 46.1 µM ([4]; HEK293T cells, Log (M) -4.33646) was -1.2% and the viability at 72 h, 21.1 nM ([4]; HEK293T cells, Log (M) -7.67631) was 23.3%. For the same compound, the viability at 72 h, 7.02 nM ([4]; HEK293T cells, Log (M) -8.15343) was 104%, the viability at 72 h, 2.34 nM ([4]; HEK293T cells, Log (M) -8.63055) was 100% and the viability at 72 h, 0.78 nM ([4]; HEK293T cells, Log (M) -9.10767) was 100%. The viability at 72 h, 46.1 µM ([5]; CRL-7250 cells (control cell line), CRL-7250, Log (M) -4.33646) was -4.6%, the viability at 72 h, 15.4 µM ([5]; CRL-7250 cells (control cell line), CRL-7250, Log (M) -4.81358) was 10.1% and the viability at 72 h, 5.12 µM ([5]; CRL-7250 cells (control cell line), CRL-7250, Log (M) -5.2907) was -5.4%. For the same compound, the viability at 72 h, 1.71 µM ([5]; CRL-7250 cells (control cell line), CRL-7250, Log (M) -5.76782) was -4.8%, the viability at 72 h, 569 nM ([5]; CRL-7250 cells (control cell line), CRL-7250, Log (M) -6.24494) was -8.6% and the viability at 72 h, 190 nM ([5]; CRL-7250 cells (control cell line), CRL-7250, Log (M) -6.72207) was 39.2%. The viability at 72 h, 63.2 nM ([5]; CRL-7250 cells (control cell line), CRL-7250, Log (M) -7.19919) was 65.6%, the viability at 72 h, 21.1 nM ([5]; CRL-7250 cells, CRL-7250, Log (M) -7.67631) was 101% and the viability at 72 h, 2.34 nM ([5]; CRL-7250 cells, CRL-7250, Log (M) -8.63055) was 100%.
